{"source": "patent US20150178471A1", "about": "“IMPROVED CLINICAL EFFECT OF PHARMACEUTICAL PRODUCTS USING COMMUNICATION TOOL AND LIFE-STYLE FACTORS” (SCIENTIFICMED SWEDEN AB, priority 2012, published 2015)", "conditions": "no combination product", "description": "Development and test of a combination product based on the pharmaceutical Zoloft and a specifically adapted QFM, including life-style improving factors, with a dependent software application • a. Test objectives; improve cardiovascular and diabetes symptoms • b. Main intervention factors; • i. an improved level of physical activity • ii. increased awareness of food intake • iii. an increased well-being based on improved administration of Zoloft • c. Follow-up variables: Weight and HbA1c • d. Period of Time Using the Combination Product: Five Months. • e. Period of time using only the pharmaceutical, i.e. no combination product, prior to the period of using the combination product: Two months • f. Period of time using only the software application, i.e. no combination product, after the period of using the combination product: Two weeks\nThe used set of questions for the specific QFM, including life-style improving factors, in the combination product based on Zoloft was the following: • Adherence to Zoloft: • The patient was asked to answer a question whether or not he/she had been adherent to Zoloft, and which dose the patient had taken; “I have taken my Zoloft today with the dose 25 mg/50 mg/100 mg/150 mg or 200 mg”. • Physical activity: • The patient was asked initially to set up an individual goal with the purpose of achieving an increased effect. […]", "data": [{"smiles": "CN[C@H]1CC[C@@H](c2ccc(Cl)c(Cl)c2)c2ccccc21", "note": "[Zoloft, Sertralin]", "values": [{"measurement": "HbA1c", "setting": "test period when the patient only was taking Zoloft (two months)", "result": "remained stable or slightly increased"}, {"measurement": "Weight gained", "setting": "test period when the patient only was taking Zoloft", "result": "1-2%"}]}]}
